#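 1) Cells in 96-well plates. 2) Compound, 48 h, 5 concentrations. 3) Linear interpolation between surrounding doses. 4) Unreached endpoint = highest concentration. GI50: concentration for 50% inhibition of growth.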 Activity calls are given as the source filed them. Cut-off read from the data, not from the text of the source: active = GI50 up to about 1.1 µM and inactive = higher.
# Assays:
# Experiment in all cases: NCI tumour cell line growth inhibition, 48 h
# SF-295 = test system: SF-295
# IGROV-1 = test system: IGROV-1
# CAKI-1 = test system: CAKI-1
# SK-MEL-2 = test system: SK-MEL-2
# SNB-19 = test system: SNB-19
# MDA-MB-435 = test system: MDA-MB-435
# HCT-116 = test system: HCT-116
# MOLT-4 = test system: MOLT-4
# UACC-62 = test system: UACC-62
# DU-145 = test system: DU-145
# MDA-MB-231 = test system: MDA-MB-231
# K562 = test system: K562
# 786-0 = test system: 786-0
# RXF 393 = test system: RXF 393
# OVCAR-5 = test system: OVCAR-5
# A549 = test system: A549
# NCI-H23 = test system: NCI-H23
# UACC-257 = test system: UACC-257
# SR = test system: SR
# COLO 205 = test system: COLO 205
# SN12C = test system: SN12C
# SW-620 = test system: SW-620
# SK-MEL-28 = test system: SK-MEL-28
# KM12 = test system: KM12
# OVCAR-4 = test system: OVCAR-4
# RPMI-8226 = test system: RPMI-8226
# ACHN = test system: ACHN
# NCI-H226 = test system: NCI-H226
# NCI-H460 = test system: NCI-H460
# HT-29 = test system: HT-29
# TK-10 = test system: TK-10
# M14 = test system: M14
# OVCAR-3 = test system: OVCAR-3
# HOP-62 = test system: HOP-62
# SF-268 = test system: SF-268
# Malme-3M = test system: Malme-3M
# SNB-75 = test system: SNB-75
# NCI/ADR-RES = test system: NCI/ADR-RES
# HL-60 = test system: HL-60
# U-251 = test system: U-251
# SF-539 = test system: SF-539
# NCI-H522 = test system: NCI-H522
# MDA-N = test system: MDA-N
# LOX IMVI = test system: LOX IMVI
# SK-MEL-5 = test system: SK-MEL-5
# T47D = test system: T47D
# HOP-92 = test system: HOP-92
# PC-3 = test system: PC-3
# Hs-578T = test system: Hs-578T
# OVCAR-8 = test system: OVCAR-8
# MCF7 = test system: MCF7
# SK-OV-3 = test system: SK-OV-3
# CCRF-CEM = test system: CCRF-CEM
# UO-31 = test system: UO-31
# EKVX = test system: EKVX
# HCT-15 = test system: HCT-15
# A498 = test system: A498
# BT-549 = test system: BT-549
smiles,measurement,setting,value
Cc1cc(=O)oc2c(CNC(CO)C(=O)O)c(O)ccc12 (stereo not drawn),GI50,SF-295,> 100 µM (inactive)
same,GI50,IGROV-1,> 100 µM (inactive)
same,GI50,CAKI-1,> 100 µM (inactive)
same,GI50,SK-MEL-2,> 100 µM (inactive)
same,GI50,SNB-19,> 100 µM (inactive)
same,GI50,MDA-MB-435,> 100 µM (inactive)
same,GI50,HCT-116,> 100 µM (inactive)
same,GI50,MOLT-4,> 100 µM (inactive)
same,GI50,UACC-62,> 100 µM (inactive)
same,GI50,DU-145,> 100 µM (inactive)
same,GI50,MDA-MB-231,> 100 µM (inactive)
same,GI50,K562,> 100 µM (inactive)
same,GI50,786-0,> 100 µM (inactive)
same,GI50,RXF 393,> 100 µM (inactive)
same,GI50,OVCAR-5,> 100 µM (inactive)
same,GI50,A549,> 100 µM (inactive)
same,GI50,NCI-H23,> 100 µM (inactive)
same,GI50,UACC-257,> 100 µM (inactive)
same,GI50,SR,94.2 µM (inactive)
same,GI50,COLO 205,> 100 µM (inactive)
same,GI50,SN12C,> 100 µM (inactive)
same,GI50,SW-620,> 100 µM (inactive)
same,GI50,SK-MEL-28,> 100 µM (inactive)
same,GI50,KM12,> 100 µM (inactive)
same,GI50,OVCAR-4,> 100 µM (inactive)
same,GI50,RPMI-8226,> 100 µM (inactive)
same,GI50,ACHN,> 100 µM (inactive)
same,GI50,NCI-H226,> 100 µM (inactive)
same,GI50,NCI-H460,> 100 µM (inactive)
same,GI50,HT-29,> 100 µM (inactive)
same,GI50,TK-10,80.9 µM (inactive)
same,GI50,M14,> 100 µM (inactive)
same,GI50,OVCAR-3,> 100 µM (inactive)
same,GI50,HOP-62,> 100 µM (inactive)
same,GI50,SF-268,> 100 µM (inactive)
same,GI50,Malme-3M,> 100 µM (inactive)
same,GI50,SNB-75,> 100 µM (inactive)
same,GI50,NCI/ADR-RES,> 100 µM (inactive)
same,GI50,HL-60,> 100 µM (inactive)
same,GI50,U-251,> 100 µM (inactive)
same,GI50,SF-539,> 100 µM (inactive)
same,GI50,NCI-H522,> 100 µM (inactive)
same,GI50,MDA-N,> 100 µM (inactive)
same,GI50,LOX IMVI,> 100 µM (inactive)
same,GI50,SK-MEL-5,> 100 µM (inactive)
same,GI50,T47D,> 100 µM (inactive)
same,GI50,HOP-92,> 100 µM (inactive)
same,GI50,PC-3,> 100 µM (inactive)
same,GI50,Hs-578T,> 100 µM (inactive)
same,GI50,OVCAR-8,> 100 µM (inactive)
same,GI50,MCF7,> 100 µM (inactive)
same,GI50,SK-OV-3,> 100 µM (inactive)
same,GI50,CCRF-CEM,> 100 µM (inactive)
same,GI50,UO-31,73.1 µM (inactive)
same,GI50,EKVX,> 100 µM (inactive)
same,GI50,HCT-15,> 100 µM
CN(C)C(=S)N/N=C\C=N/NC(=S)N(C)C,GI50,SF-295,0.158 µM (active)
same,GI50,IGROV-1,0.47 µM (active)
same,GI50,CAKI-1,0.447 µM (active)
same,GI50,SK-MEL-2,0.361 µM (active)
same,GI50,SNB-19,0.731 µM (active)
same,GI50,A498,0.643 µM (active)
same,GI50,MDA-MB-435,0.953 µM (active)
same,GI50,UACC-62,0.802 µM (active)
same,GI50,DU-145,0.155 µM (active)
same,GI50,MDA-MB-231,> 100 µM (inactive)
same,GI50,K562,23.9 µM (inactive)
same,GI50,786-0,0.209 µM (active)
same,GI50,RXF 393,0.277 µM (active)
same,GI50,OVCAR-5,31.8 µM (inactive)
same,GI50,A549,0.0918 µM (active)
same,GI50,NCI-H23,1.63 µM (inactive)
same,GI50,UACC-257,2.64 µM (inactive)
same,GI50,COLO 205,0.246 µM (active)
same,GI50,SN12C,0.286 µM (active)
same,GI50,SW-620,0.0569 µM (active)
same,GI50,SK-MEL-28,0.552 µM (active)
same,GI50,KM12,0.525 µM (active)
same,GI50,OVCAR-4,0.148 µM (active)
same,GI50,RPMI-8226,0.871 µM (active)
same,GI50,ACHN,0.238 µM (active)
same,GI50,NCI-H226,0.515 µM (active)
same,GI50,NCI-H460,0.0231 µM (active)
same,GI50,HT-29,0.0625 µM (active)
same,GI50,TK-10,2.53 µM (inactive)
same,GI50,M14,0.139 µM (active)
same,GI50,OVCAR-3,0.0295 µM (active)
same,GI50,HOP-62,0.129 µM (active)
same,GI50,SF-268,0.112 µM (active)
same,GI50,Malme-3M,0.182 µM (active)
same,GI50,SNB-75,1.75 µM (inactive)
same,GI50,NCI/ADR-RES,0.189 µM (active)
same,GI50,BT-549,> 100 µM (inactive)
same,GI50,U-251,0.0614 µM (active)
same,GI50,SF-539,6.97 µM (inactive)
same,GI50,NCI-H522,0.22 µM (active)
same,GI50,MDA-N,3.29 µM (inactive)
same,GI50,LOX IMVI,0.321 µM (active)
same,GI50,SK-MEL-5,0.349 µM (active)
same,GI50,T47D,0.384 µM (active)
same,GI50,HOP-92,1.65 µM (inactive)
same,GI50,PC-3,0.182 µM (active)
same,GI50,OVCAR-8,0.175 µM (active)
same,GI50,MCF7,0.329 µM (active)
same,GI50,SK-OV-3,0.344 µM (active)
same,GI50,UO-31,0.237 µM (active)
same,GI50,EKVX,0.479 µM (active)
same,GI50,HCT-15,0.0843 µM

# Reference: ChEMBL document CHEMBL1201862, “PubChem BioAssay data set” (2004)
